C1=Cc2ccccc2Nc2ccccc21
solubility (mole fraction)
Details | 278.15 K | 283.15 K | 288.15 K | 293.15 K | 298.15 K | 303.15 K | 308.15 K | 313.15 K | 318.15 K | 323.15 K
in 1,4-dioxane | – | – | 0.0312 | 0.0349 | 0.0392 | 0.0423 | 0.0481 | 0.052 | 0.058 | 0.0632
in DMAc | 0.113 | 0.122 | 0.13 | 0.139 | 0.149 | 0.159 | 0.17 | 0.179 | 0.192 | 0.203
in DMF | 0.109 | 0.116 | 0.122 | 0.129 | 0.136 | 0.144 | 0.153 | 0.161 | 0.169 | 0.178
in NMP | 0.219 | 0.223 | 0.23 | 0.239 | 0.246 | 0.251 | 0.257 | 0.265 | 0.273 | 0.281
in acetone | 0.0162 | 0.0178 | 0.0197 | 0.0219 | 0.0242 | 0.0268 | 0.0296 | 0.0327 | 0.0363 | 0.04
in acetonitrile | 0.00245 | 0.00298 | 0.00345 | 0.00412 | 0.00489 | 0.00575 | 0.00676 | 0.00782 | 0.00933 | 0.0108
in ethyl acetate | 0.01 | 0.0116 | 0.0133 | 0.015 | 0.0172 | 0.0193 | 0.0214 | 0.0243 | 0.0271 | 0.03
in isobutyl acetate | 0.0105 | 0.0119 | 0.0132 | 0.0146 | 0.0161 | 0.0184 | 0.0206 | 0.023 | 0.0257 | 0.0285
in isopropyl acetate | 0.00918 | 0.0104 | 0.0118 | 0.0133 | 0.0152 | 0.0168 | 0.0181 | 0.0202 | 0.0222 | 0.0249
in methyl acetate | 0.00825 | 0.0092 | 0.0102 | 0.0118 | 0.0132 | 0.015 | 0.017 | 0.0192 | 0.0215 | 0.0239
in n-butyl acetate | 0.0133 | 0.0152 | 0.0171 | 0.0189 | 0.0208 | 0.0236 | 0.0261 | 0.0289 | 0.0321 | 0.0362
in n-propyl acetate | 0.0126 | 0.0143 | 0.0157 | 0.0175 | 0.0194 | 0.0215 | 0.0239 | 0.0267 | 0.0299 | 0.0331

Source: BigSolDB 2.1
